Data set [1] has as its target T1, Mouse EphA2 (Mus musculus, UniProt Q03145).
T1 construct: EphA2 (Ecto); Mouse; C-; Sino; 50586-M08H; polyHis (C); purchased Sino Biological 50586-M08H
The data set is described as follows: FP competition binding (Study 2, alternative protocol). As to conditions: summary of Table 10.

Data set [2] concerns the target T2, rat EphA2 (Rattus norvegicus, UniProt D3ZBN3).
T2 construct: Rat; C-; In-house; N/A; polyHis (C); made in house
The description is as above. As to conditions: summary of Table 10.

The target in data set [3] is T3, Human EphA2 (Homo sapiens, UniProt P29317).
T3 construct: EphA2 (Ecto); Human; C-terminal; R&D systems; 3035-A2; polyHis (C); purchased R&D systems 3035-A2
The description is as above. The following applies: summary of Table 10.

The test system of data set [4] is PC-3 xenograft. The data set is described as follows: Study 8: in vivo efficacy, PC-3 xenograft. As to conditions: qw.
Method: The major endpoint was to see if the tumor growth could be delayed or mice could be cured. Tumor volume was measured three times weekly in two dimensions using a caliper, and the volume was expressed in mm^3 using the formula: V=0.5 a×b^2 where a and b are the long and short diameters of the tumor, respectively. The tumor size was then used for calculations of T/C value. The T/C value (in percent) is an indication of antitumor effectiveness; T and C are the mean volumes of the treated and control groups, respectively, on a given day. TGI was calculated for each group using the formula: TGI (%)=[1−(Ti−T0)/(Vi−V0)]×100; Ti is the average tumor volume of a treatment group on a given day, T0 is the average tumor volume of the treatment group on the day of treatment start, Vi is the average tumor volume of the vehicle control group on the same day with Ti, and V0 is the average tumor volume of the vehicle group on the day of treatment start.
A one-way ANOVA was performed to compare tumor volume among groups, and when a significant F-statistics (a ratio of treatment variance to the error variance) was obtained, comparisons between groups were carried out with Games-Howell test. […] P<0.05 was considered to be statistically significant.
The tumor cells were maintained in F-12K medium supplemented with 10% heat inactivated fetal bovine serum at 37° C. in an atmosphere of 5% CO2 in air. The tumor cells were routinely subcultured twice weekly. The cells growing in an exponential growth phase were harvested and counted for tumor inoculation.
52 animals were randomized when the average tumor volume reached 454 mm^3.
Tumor growth inhibition rate for test articles in the PC-3 xenograft model was calculated based on tumor volume measurements at day 20 after the start of the treatment.

T1 sequence (Q03145 26-538 limits assumed): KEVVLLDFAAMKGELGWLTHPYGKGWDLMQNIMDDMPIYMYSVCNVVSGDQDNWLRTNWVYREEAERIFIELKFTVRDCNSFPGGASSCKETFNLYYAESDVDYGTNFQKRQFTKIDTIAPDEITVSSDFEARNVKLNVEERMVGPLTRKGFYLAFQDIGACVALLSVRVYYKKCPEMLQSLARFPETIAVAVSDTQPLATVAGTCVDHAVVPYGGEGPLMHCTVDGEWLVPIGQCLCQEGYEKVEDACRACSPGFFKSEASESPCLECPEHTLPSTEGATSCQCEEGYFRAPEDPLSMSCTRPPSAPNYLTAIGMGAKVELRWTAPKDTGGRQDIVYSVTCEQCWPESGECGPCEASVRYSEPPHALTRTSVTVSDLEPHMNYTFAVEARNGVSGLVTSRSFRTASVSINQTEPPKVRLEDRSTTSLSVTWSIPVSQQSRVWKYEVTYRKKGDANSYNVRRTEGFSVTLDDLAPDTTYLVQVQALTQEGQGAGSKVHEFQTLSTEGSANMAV
T2 sequence (D3ZBN3 26-205): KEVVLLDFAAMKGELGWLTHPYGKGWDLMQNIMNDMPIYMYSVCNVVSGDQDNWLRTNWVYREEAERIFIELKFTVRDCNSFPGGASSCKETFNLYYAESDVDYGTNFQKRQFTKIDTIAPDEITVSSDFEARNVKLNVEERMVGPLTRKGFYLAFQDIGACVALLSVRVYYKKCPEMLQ
T3 sequence (P29317 24-537 limits assumed): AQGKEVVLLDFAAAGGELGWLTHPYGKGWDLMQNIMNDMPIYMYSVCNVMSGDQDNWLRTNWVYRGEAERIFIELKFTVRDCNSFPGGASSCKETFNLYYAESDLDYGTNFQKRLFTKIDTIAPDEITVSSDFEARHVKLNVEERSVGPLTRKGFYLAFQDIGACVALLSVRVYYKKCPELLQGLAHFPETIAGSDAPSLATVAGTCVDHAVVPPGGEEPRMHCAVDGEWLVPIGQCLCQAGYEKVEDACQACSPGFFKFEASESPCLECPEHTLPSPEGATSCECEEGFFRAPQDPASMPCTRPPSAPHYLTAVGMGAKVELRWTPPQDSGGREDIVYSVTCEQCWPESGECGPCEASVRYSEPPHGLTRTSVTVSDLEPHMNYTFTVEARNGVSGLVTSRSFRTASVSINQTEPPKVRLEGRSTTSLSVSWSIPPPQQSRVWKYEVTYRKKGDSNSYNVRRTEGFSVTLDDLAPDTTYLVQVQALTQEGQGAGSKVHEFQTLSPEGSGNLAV

In the case of “(β-Ala)-Sar10-A(HArg)DC(HyP)LVNPLCLHP(D-Asp)W(HArg)C [Compound 66]”, the “binding to mouse EphA2” value in data set [1] is given as “bind with high affinity”. Moreover, in data set [2], the “binding to rat EphA2” value is listed as “bind with high affinity”.
Regarding “Ac-CPLVNPLCLHPGVVTCLHG-Sar6-(D-K) [Compound 77]”, the “binding to human EphA2” value in data set [3] is “binds”. In addition, the “binding to mouse EphA2” value in data set [1] is listed as “binds”.
Regarding `CC(=O)O[C@@]12CO[C@@H]1C[C@H](O)[C@@]1(C)C(=O)[C@H](O)C3=C(C)[C@@H](OC(=O)[C@H](O)[C@@H](NC(=O)OC(C)(C)C)c4ccccc4)C[C@@](O)([C@@H](OC(=O)c4ccccc4)[C@H]21)C3(C)C` [Docetaxel], the “animal body weight loss” value in data set [4] (15 mg/kg) is recorded as “severe animal body weight loss”. Further, the TGI is 101.8% in data set [4] (15 mg/kg, day 20) and 101.8% in data set [4] (15 mpk, day 20). Moreover, in data set [4] (15 mg/kg, day 20), the “TV (tumor volume)” value turned out to be 419 mm^3. The Mean tumor volume stood at 453 ± 62 mm^3 in data set [4] (15 mpk, day 0); 584 ± 72 mm^3 in data set [4] (15 mpk, day 2); 632 ± 56 mm^3 in data set [4] (15 mpk, day 4); 636 ± 48 mm^3 in data set [4] (15 mpk, day 6); 568 ± 50 mm^3 in data set [4] (15 mpk, day 8); 408 ± 31 mm^3 in data set [4] (15 mpk, day 10). For the same molecule, the Mean tumor volume was found to be 374 ± 26 mm^3 in data set [4] (15 mpk, day 13); 388 ± 36 mm^3 in data set [4] (15 mpk, day 15); 361 ± 25 mm^3 in data set [4] (15 mpk, day 17); 419 ± 31 mm^3 in data set [4] (15 mpk, day 20). In data set [4] (15 mpk, day 20), the T/C came to 17.7%. For the same molecule, in data set [4] (15 mpk, day 20, Mean ± SEM), the “Tumor Volume” value worked out at 419 ± 31 mm^3.
With “(β-Ala)-Sar10-A(HArg)DCPLVNPLCLHPGVVTC [Compound 67]”, the “binding to mouse EphA2” value in data set [1] is reported as “bind with high affinity”. The “binding to rat EphA2” value in data set [2] is reported as “bind with high affinity”.

The T/C is the result in the treated group divided by that in the control group, in per cent.

Values taken from patent US11696956B2, “Bicyclic peptide ligands specific for EphA2” (BicycleTx Limited, priority 2017, dated 2023).
